Test results as given in patent publication US6461997B1, “Triazole sulfones having herbicidal activity” (Monsanto Technology LLC, priority 1999, dated 2002).

How the values were obtained:
SINAR (wild mustard) = experiment: Pre-emergence herbicidal activity, cool season; format: in vivo, Sinapis arvensis; details: lowest tested rate with 80% or greater inhibition; rates 300, 100, 30, 10 g/ha; about 14 days
How it was run: (§1)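 Seeds sown in sterilised fertilised topsoil received surface-applied compound in 50:50 acetone/water, typically at 300, 100, 30 and 10 g/ha, then greenhouse-grown at 30/21° C (warm-season species) or 18/13° C (cool-season species). Percent inhibition versus untreated plants was scored at about 14 days, giving GR80; an asterisk marks activity short of 80% at the top rate.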

AMARE (redroot pigweed) = experiment: Pre-emergence herbicidal activity, warm season; format: in vivo, Amaranthus retroflexus; details: GR80 = lowest tested rate (300, 100, 30, 10 g/ha) with 80% or greater inhibition; approx. 14 days after treating; 30/21° C.
How it was run: as §1

SETVI (green foxtail) = experiment: Pre-emergence herbicidal activity, cool season; format: in vivo, Setaria viridis; details: GR80 = lowest tested rate (300, 100, 30, 10 g/ha) with 80% or greater inhibition; approx. 14 days after treating; 18/13° C.
How it was run: as §1

[1] = system: LAMPU (purple deadnettle); experiment: Pre-emergence herbicidal activity, cool season; format: in vivo, Lamium purpureum; details: lowest tested rate with 80% or greater inhibition; rates 300, 100, 30, 10 g/ha; about 14 days
How it was run: as §1

[2] = system: CIRAR (canada thistle (seedling)); experiment: Pre-emergence herbicidal activity, warm season; format: in vivo, Cirsium arvense; details: GR80 = lowest tested rate (300, 100, 30, 10 g/ha) with 80% or greater inhibition; approx. 14 days after treating; 30/21° C.
How it was run: as §1

[3] = system: AGSST (creeping bentgrass); experiment: Pre-emergence herbicidal activity, cool season; format: in vivo, Agrostis stolonifera; details: GR80 = lowest tested rate (300, 100, 30, 10 g/ha) with 80% or greater inhibition; approx. 14 days after treating; 18/13° C.
How it was run: as §1

POROL (common purslane) = experiment: Pre-emergence herbicidal activity, warm season; format: in vivo, Portulaca oleracea; details: GR80 = lowest tested rate (300, 100, 30, 10 g/ha) with 80% or greater inhibition; approx. 14 days after treating; 30/21° C.
How it was run: as §1

SASKR (russian thistle) = experiment: Pre-emergence herbicidal activity, cool season; format: in vivo, Salsola kali; details: lowest tested rate with 80% or greater inhibition; rates 300, 100, 30, 10 g/ha; about 14 days
How it was run: as §1

STEME (common chickweed) = experiment: Pre-emergence herbicidal activity, cool season; format: in vivo, Stellaria media; details: lowest tested rate with 80% or greater inhibition; rates 300, 100, 30, 10 g/ha; about 14 days
How it was run: as §1

POLCO (wild buckwheat) = experiment: Pre-emergence herbicidal activity, cool season; format: in vivo, Polygonum convolvulus; details: lowest tested rate with 80% or greater inhibition; rates 300, 100, 30, 10 g/ha; about 14 days
How it was run: (§2)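 Read-out: GR80, derived from percent growth inhibition relative to untreated plants at roughly 14 days after planting and treatment. Compounds went onto the surface of freshly seeded soil at 10–300 g/ha. Day/night regimes were 30/21 °C for millet and crabgrass, 18/13 °C for blackgrass and buckwheat.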

DIGSA (large crabgrass) = experiment: Pre-emergence herbicidal activity, warm season; format: in vivo, Digitaria sanguinalis; details: GR80 = lowest tested rate (300, 100, 30, 10 g/ha) with 80% or greater inhibition; approx. 14 days after treating; 30/21° C.
How it was run: as §2

[4] = system: AEGCY (jointed goatgrass); experiment: Pre-emergence herbicidal activity, cool season; format: in vivo, Aegilops cylindrica; details: GR80 = lowest tested rate (300, 100, 30, 10 g/ha) with 80% or greater inhibition; approx. 14 days after treating; 18/13° C.
Protocol: (§3) Tables 5 to 8 summarize results of tests conducted as described below to determine the pre-emergence herbicidal activity, in the form of a GR80 value, of illustrative compounds of this invention. […] Compounds of the invention were typically applied at rates of 300, 100, 30, and 10 g/ha. Where herbicidal activity was evident but 80% inhibition was not achieved at the highest rate tested, an asterisk (*) is shown in the following tables.
(§4) The pre-emergence tests were conducted by the following procedure. Topsoil was sieved to pass through a 1.27 cm screen. Fertilizer was added to the topsoil and the mixture was then sterilized by heating. The topsoil mixture was placed in a pot and compacted to a depth of 1.0 to 1.25 cm from the top of the pot. Seeds of each of several monocotyledonous and dicotyledonous annual plant species were placed on top of the soil. Additional soil was subsequently placed over the seeds to level-fill the pot. A known amount of each test compound dissolved or suspended in an appropriate organic solvent was diluted with a 50:50 mix of acetone and water and applied to the surface of the soil. After treatment the plants were placed in a greenhouse where they received 0.64 cm of overhead irrigation. All subsequent watering consisted of a light overhead mist and/or subirrigation as needed for germination and growth. Tables 5 and 6 below relate to warm season plant species which were placed after pre-emergence treatment in a greenhouse with a 30/21° C. day/night temperature regime. Tables 7 and 8 below relates to cool season plant species placed after pre-emergence treatment in a greenhouse or growth chamber with an 18/13° C. day/night temperature regime.
(§5) Approximately 14 days after planting and treating, the plants were observed and herbicidal efficacy recorded as percent inhibition by comparison with untreated plants.
(§6) The plant species usually regarded as weeds which were utilized in the tests are identified in the tables below according to the following legend, in which “d” indicates a dicotyledonous species and “m” a monocotyledonous species. All monocotyledonous species included in the tests herein are grasses.

[5] = system: CHEAL (common lambsquarters); experiment: Pre-emergence herbicidal activity, warm season; format: in vivo, Chenopodium album; details: GR80 = lowest tested rate (300, 100, 30, 10 g/ha) with 80% or greater inhibition; approx. 14 days after treating; 30/21° C.
How it was run: as §1

[6] = system: GALAP (catchweed bedstraw); experiment: Pre-emergence herbicidal activity, cool season; format: in vivo, Galium aparine; details: lowest tested rate with 80% or greater inhibition; rates 300, 100, 30, 10 g/ha; about 14 days
How it was run: as §1

CONAR (field bindweed) = experiment: Pre-emergence herbicidal activity, warm season; format: in vivo, Convolvulus arvensis; details: GR80 = lowest tested rate (300, 100, 30, 10 g/ha) with 80% or greater inhibition; approx. 14 days after treating; 30/21° C.
Protocol: as §3, §4, §5, §6

[7] = system: PANMI (wild proso millet); experiment: Pre-emergence herbicidal activity, warm season; format: in vivo, Panicum miliaceum; details: GR80 = lowest tested rate (300, 100, 30, 10 g/ha) with 80% or greater inhibition; approx. 14 days after treating; 30/21° C.
How it was run: as §2

SETFA (giant foxtail) = experiment: Pre-emergence herbicidal activity, warm season; format: in vivo, Setaria faberi; details: GR80 = lowest tested rate (300, 100, 30, 10 g/ha) with 80% or greater inhibition; approx. 14 days after treating; 30/21° C.
How it was run: as §1

ALOMY (blackgrass) = experiment: Pre-emergence herbicidal activity, cool season; format: in vivo, Alopecurus myosuroides; details: GR80 = lowest tested rate (300, 100, 30, 10 g/ha) with 80% or greater inhibition; approx. 14 days after treating; 18/13° C.
How it was run: as §2

LOLMG (annual ryegrass) = experiment: Pre-emergence herbicidal activity, cool season; format: in vivo, Lolium multiflorum; details: GR80 = lowest tested rate (300, 100, 30, 10 g/ha) with 80% or greater inhibition; approx. 14 days after treating; 18/13° C.
How it was run: as §1

[8] = system: SORHA (johnsongrass (seedling)); experiment: Pre-emergence herbicidal activity, warm season; format: in vivo, Sorghum halepense; details: GR80 = lowest tested rate (300, 100, 30, 10 g/ha) with 80% or greater inhibition; approx. 14 days after treating; 30/21° C.
How it was run: as §1

[9] = system: VERPE (creeping speedwell); experiment: Pre-emergence herbicidal activity, cool season; format: in vivo, Veronica persicaria; details: lowest tested rate with 80% or greater inhibition; rates 300, 100, 30, 10 g/ha; about 14 days
How it was run: as §1

SOLNI (black nightshade) = experiment: Pre-emergence herbicidal activity, warm season; format: in vivo, Solanum nigrum; details: GR80 = lowest tested rate (300, 100, 30, 10 g/ha) with 80% or greater inhibition; approx. 14 days after treating; 30/21° C.
How it was run: as §1

[10] = system: AGRRE (quackgrass (seedling)); experiment: Pre-emergence herbicidal activity, cool season; format: in vivo, Elymus repens; details: GR80 = lowest tested rate (300, 100, 30, 10 g/ha) with 80% or greater inhibition; approx. 14 days after treating; 18/13° C.
Protocol: as §3, §4, §5, §6

AVEFA (wild oat) = experiment: Pre-emergence herbicidal activity, cool season; format: in vivo, Avena fatua; details: GR80 = lowest tested rate (300, 100, 30, 10 g/ha) with 80% or greater inhibition; approx. 14 days after treating; 18/13° C.
Protocol: as §3, §4, §5, §6

[11] = system: BRAPP (broadleaf signalgrass); experiment: Pre-emergence herbicidal activity, warm season; format: in vivo, Brachiaria platyphylla; details: GR80 = lowest tested rate (300, 100, 30, 10 g/ha) with 80% or greater inhibition; approx. 14 days after treating; 30/21° C.
How it was run: as §1

O=C(N1CCCC1)n1cnc(S(=O)(=O)C(F)(F)Br)n1 [Example 23, 3-(bromodifluoromethylsulfonyl)-1-(pyrrolidinocarbonyl)-1,2,4-triazole]
Pre-emergence activity GR80, SINAR (SINAR (wild mustard)): 300 g/ha
Pre-emergence activity (GR80) AMARE (AMARE (redroot pigweed)): 300 g/ha
Pre-emergence activity (GR80) SETVI (SETVI (green foxtail)): 100 g/ha
Pre-emergence activity GR80, LAMPU [1]: 100 g/ha
Pre-emergence activity (GR80) CIRAR [2]: 300 g/ha
Pre-emergence activity (GR80) AGSST [3]: 100 g/ha
Pre-emergence activity (GR80) POROL (POROL (common purslane)): 300 g/ha
Pre-emergence activity GR80, SASKR (SASKR (russian thistle)): [empty]
Pre-emergence activity GR80, STEME (STEME (common chickweed)): 100 g/ha
Pre-emergence activity GR80, POLCO (POLCO (wild buckwheat)): 30 g/ha
Pre-emergence activity (GR80) DIGSA (DIGSA (large crabgrass)): 300 g/ha
Pre-emergence activity (GR80) AEGCY [4]: 300 g/ha
Pre-emergence activity (GR80) CHEAL [5]: 300 g/ha
Pre-emergence activity GR80, GALAP [6]: 300 g/ha
Pre-emergence activity (GR80) CONAR (CONAR (field bindweed)): 300 g/ha
Pre-emergence activity (GR80) PANMI [7]: 100 g/ha
Pre-emergence activity (GR80) SETFA (SETFA (giant foxtail)): 100 g/ha
Pre-emergence activity (GR80) ALOMY (ALOMY (blackgrass)): 300 g/ha
Pre-emergence activity (GR80) LOLMG (LOLMG (annual ryegrass)): 300 g/ha
Pre-emergence activity (GR80) SORHA [8]: 300 g/ha
Pre-emergence activity GR80, VERPE [9]: [empty]

COCCN(C)C(=O)n1cnc(S(=O)(=O)C(F)(F)C(F)(F)Br)n1 [Example 76]
Pre-emergence activity (GR80) SOLNI (SOLNI (black nightshade)): 300 g/ha
Pre-emergence activity GR80, SINAR (SINAR (wild mustard)): 10 g/ha
Pre-emergence activity (GR80) SETVI (SETVI (green foxtail)): 100 g/ha
Pre-emergence activity GR80, LAMPU [1]: 100 g/ha
Pre-emergence activity (GR80) AGRRE [10]: 100 g/ha
Pre-emergence activity (GR80) AGSST [3]: 100 g/ha
Pre-emergence activity (GR80) POROL (POROL (common purslane)): 300 g/ha
Pre-emergence activity GR80, SASKR (SASKR (russian thistle)): 30 g/ha
Pre-emergence activity GR80, STEME (STEME (common chickweed)): 300 g/ha
Pre-emergence activity GR80, POLCO (POLCO (wild buckwheat)): 300 g/ha
Pre-emergence activity (GR80) DIGSA (DIGSA (large crabgrass)): 300 g/ha
Pre-emergence activity (GR80) AEGCY [4]: 300 g/ha
Pre-emergence activity (GR80) AVEFA (AVEFA (wild oat)): 300 g/ha
Pre-emergence activity GR80, GALAP [6]: 100 g/ha
Pre-emergence activity (GR80) PANMI [7]: 100 g/ha
Pre-emergence activity (GR80) SETFA (SETFA (giant foxtail)): 300 g/ha
Pre-emergence activity (GR80) ALOMY (ALOMY (blackgrass)): 300 g/ha
Pre-emergence activity GR80, VERPE [9]: 30 g/ha

C=CCN(C)C(=O)n1cnc(S(=O)(=O)C(F)F)n1 [Example 30]
Pre-emergence activity GR80, SINAR (SINAR (wild mustard)): 100 g/ha
Pre-emergence activity (GR80) SETVI (SETVI (green foxtail)): 300 g/ha
Pre-emergence activity GR80, LAMPU [1]: 10 g/ha
Pre-emergence activity (GR80) CIRAR [2]: 300 g/ha
Pre-emergence activity (GR80) AGSST [3]: 30 g/ha
Pre-emergence activity (GR80) POROL (POROL (common purslane)): 300 g/ha
Pre-emergence activity GR80, SASKR (SASKR (russian thistle)): 10 g/ha
Pre-emergence activity GR80, STEME (STEME (common chickweed)): 10 g/ha
Pre-emergence activity (GR80) BRAPP [11]: 300 g/ha
Pre-emergence activity GR80, POLCO (POLCO (wild buckwheat)): 100 g/ha
Pre-emergence activity (GR80) DIGSA (DIGSA (large crabgrass)): 300 g/ha
Pre-emergence activity (GR80) AEGCY [4]: 100 g/ha
Pre-emergence activity (GR80) AVEFA (AVEFA (wild oat)): 100 g/ha
Pre-emergence activity GR80, GALAP [6]: 100 g/ha
Pre-emergence activity (GR80) PANMI [7]: 100 g/ha
Pre-emergence activity (GR80) SETFA (SETFA (giant foxtail)): 300 g/ha
Pre-emergence activity (GR80) ALOMY (ALOMY (blackgrass)): 300 g/ha
Pre-emergence activity GR80, VERPE [9]: 10 g/ha
